Laboratory results reported in patent publication US10335504B2, “Heterocyclic molecules for biomedical imaging and therapeutic applications” (Washington University, priority 2013, dated 2019).
“Also recorded” adds a separate entry of the source.

How the values were obtained:
[1] = system: Human Pancreatic Cancer Cells (Mia PaCa-2); assay: Live cell fluorescence imaging; format: cell-based; conditions: 5 μM, 37° C., 30 min
Procedure: (§1) In these experiments, human carcinoma cells were incubated with AI-182
(§2) (5 μM) at 37° C. in the presence of 5% CO2 for 30 min, and examined using a Nikon Ti-E PFS inverted high resolution microscope equipped with a Nikon (Magnification: 20×) Plan APO objective, Prior H117 ProScan flat top linear encoded stage, and Prior Lumen 200PRO illumination system with standard DAPI and FITC filter sets. Top row: Live Cell Imaging of Human Glioblastoma (U87) Cells Using AI-182. Middle row: Live Cell Imaging of Human Pancreatic Cancer Cells (PANC1) Using AI-182. Bottom row: Live Cell Imaging of Human Pancreatic Cancer Cells (Mia PaCa-2) Using AI-182.

[2] = system: Human Pancreatic Cancer Cells (PANC1); assay: Live cell fluorescence imaging; format: cell-based; conditions: 5 μM, 37° C., 30 min
Procedure: as §1, §2

[3] = system: Human Glioblastoma (U87) Cells; assay: Live cell fluorescence imaging; format: cell-based; conditions: 5 μM, 37° C., 30 min
Procedure: as §1, §2

Aβ plaques [4] = biological target: T1, Aβ plaques (Homo sapiens, UniProt P05067); assay: Multiphoton imaging in live APP/PS1 mice; format: in vivo, mouse
T1 construct: from tissue; host or cells: brain of APPsw+/-/PS1 (and APPsw+/-) transgenic mice: sections ex vivo, and live animals for multiphoton imaging
T1 sequence (P05067 672-713 limits assumed): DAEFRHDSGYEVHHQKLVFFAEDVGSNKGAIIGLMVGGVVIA
Procedure: Prior to imaging, dextran-Texas Red was injected for mapping the blood vessels. Following labeling of blood vessels, F-AI-182 (2 mg/kg, dissolved in DMSO/PEG; 20:80) was intravenously injected. A z-stack image series was acquired from cortex surface to a depth of approx. 100 μm using microscope LSM 510META NLO (Carl-Zeiss Inc). […] The labeling of brain parenchymal plaques was visible within 10 min, indicating facile clearance from non-targeted regions and remained labeled for 30 min (FIG. 6). Multi-photon imaging can be done using ^18F-AI-182, other agents, or second generation agents (Bacskai, B., et al. Four-dimensional multiphoton imaging of brain entry, amyloid binding and clearance of an amyloid-3 ligand in transgenic mice. Proc Natl Acad Sci USA 100, 12462-12467 (2003)).

preformed Aβ1-42 fibrils = biological target: T2, preformed Aβ1-42 fibrils (Homo sapiens, UniProt P05067); assay: Binding assay with preformed Aβ1-42 fibrils/aggregates in PBS (fluorescence); conditions: PBS
T2 construct: preformed Aβ1-42 fibrils
T2 sequence (P05067 672-713 limits assumed): as above
From the text: In some embodiments of the present teachings, binding assays to preformed fibrils or AD brain homogenate extracts can be performed using literature procedures (Klunk, W., et al. Uncharged thioflavin-T derivatives bind to amyloid-beta protein with high affinity and readily enter the brain. Life Sci 69, 1471-1484 (2001); Zhen, W., et al. Synthesis and amyloid binding properties of rhenium complexes: preliminary progress towards a reagent for SPECT imaging of Alzheimer's disease brain. J Med Chem 42, 2805-2815 (1999)). Prior to binding assays, the stock solution (2 μM) can be thawed. To aliquots of this stock solution, ^18F-AI-182 (also exemplified for either ^18F-AI-183 or ^18F-AI-187) can be added at various concentrations to a final concentration of 200 nM Aβ fibrils or 200 μL of AD brain extracts (20-25 μg). The aggregate-bound ^18F-AI-182 (or other analogues) can be collected on Whatman GF filters using Brandon M-24R cell harvester, washed, and counted in a γ-counter (Perkin Elmer). Inhibition constants (Ki) can be calculated as described previously (Han, H., Cho, C. & Lansbury, P. J. Technetium complexes for quantification of brain amyloid. J Am Chem Soc 118, 4506-4508 (1996)). Binding assay results can assist in evaluation of target specificity.
Binding assays of F-AI-182 with preformed Aβ1-42 aggregates were performed in PBS. […] Fluorescence was not observed using Aβ aggregates alone in PBS upon excitation at 410 nm (a negative control). […] Comparative analyses can be performed with other compounds such as AV-45, BAYER 94-9172, and AZD4694. An agent can be interacting with either of the two modestly high affinity binding sites (BS1& BS2) or recognizing an entirely new site on Aβ1-42. F-AI-182 can register different complementary binding sites in relation to Aβ-pathophysiology compared to current agents.

Aβ plaques [5] = assay: Staining of human AD brain tissue sections; format: binding; conditions: person with AD; 50 nM
Procedure: Staining experiments were performed with human brain tissues. Tissue samples were obtained from the frontal lobe of clinically and neuropathologically well-characterized cases. The neuropathological diagnosis of AD was based on the criteria of the Consortium to Establish a Registry for Alzheimer's Disease (CERAD) (Mirra, S., et al. The Consortium to Establish a Registry for Alzheimer's Disease (CERAD). Part II. Standardization of the neuropathologic assessment of Alzheimer's disease. Neurology 41, 479-486 (1991)) or the National Institute of Aging-Reagan Institute (NIA-RI) (Hyman, B. & Trojanowski, J. Consensus recommendations for the postmortem diagnosis of Alzheimer disease from the National Institute on Aging and the Reagan Institute Working Group on diagnostic criteria for the neuropathological assessment of Alzheimer disease. J Neuropathol Exp Neurol 56, 1095-1097. (1997)). […]
The fluorescent probe (F-AI-183) labels fibrillar amyloid (arrow). The slides were analyzed on a using a Nikon Ti-E PFS inverted microscope equipped with a Nikon 10×0.3 NA Plan APO objective, Prior H117 ProScan flat top linear encoded stage, and Prior Lumen 200PRO illumination system with standard DAPI and FITC filter sets. […] Images were processed and analyzed using the Image J software package (NIH).

Aβ plaques [6] = biological target: T1, Aβ plaques; assay: Ex vivo staining of mouse brain sections; format: binding; conditions: 24 months
Procedure: FIG. 2 illustrates ex vivo staining studies were performed on brain sections (50 μm) of an APPsw^+/−/PS1 mouse (24 months old) and a control WT mouse (BL/6; 24 months old) using well-established procedures. Briefly, tissue sections were immunostained with mouse monoclonal antibody and visualized by donkey-anti-mouse HJ3.4 Aβ monoclonal antibody-Alexa 568 as a positive control. […] By comparison, no staining in WT mice was seen either with F-AI-182 or the antibody indicating the targeting specificity of F-AI-182. The slides were analyzed on a Zeiss LSM 5 PASCAL confocal system coupled to a Zeiss Axiovert 200 microscope.
The slides were analyzed using a Nikon Ti-E PFS inverted microscope equipped with a Nikon 10x 0.3 NA Plan APO objective, Prior H117 ProScan flat top linear encoded stage, and Prior Lumen 200PRO illumination system with standard DAPI and FITC filter sets. The images were acquired using a Photometrics CoolSNAP HQ2 digital camera and MetaMorph microscopy automaton, and imaging software. Images were processed and analyzed using the Image J software package (NIH).

Hydrophobicity (log P) = format: physicochemical

- time at which labeling of brain parenchymal plaques was visible (Aβ plaques [4]; live APP/PS1 mice): ≤ 10 min
- time plaques remained labeled (Aβ plaques [4]; live APP/PS1 mice): 30 min
- Kd (preformed Aβ1-42 fibrils; concentration dependent and saturable binding, read-out: binding constant (Kd) to preformed Aβ1-42 fibrils): 59 ± 7 nM
- staining of brain sections of WT mice (Aβ plaques [6]; WT BL/6 mouse): no staining
- logP (Hydrophobicity (log P)): 1.2
SMILES: CN(C)c1ccc(/C=C/c2nc3ccc(OCCF)cc3s2)cn1 [F-AI-182]
- probe uptake in cells (fluorescence) [1]: accumulation of the probe within cells
- probe uptake in cells (fluorescence) [2]: accumulation of the probe within cells
- probe uptake in cells (fluorescence) [3]: accumulation of the probe within cells
- labeling of plaques in vivo by multi-photon microscopy (Aβ plaques [4]; live APPsw+/−/PS1 mice, 2 mg/kg i.v., 2 mg/kg): label plaques in brain parenchyma and blood vessels (CAA)
- fluorescence of 570 nm peak upon incubation with preformed Aβ(1-42) aggregates (preformed Aβ1-42 fibrils; excitation 410 nm): remarkable enhancement in the fluorescence
- staining of Aβ plaques in human AD brain sections (Aβ plaques [5]): detect both diffuse and compact AP plaques; also recorded: stains both fibrillar and diffuse plaques; also recorded: abundant staining of Aβ plaques
- staining of plaques in hippocampus and cortical region of brain sections (Aβ plaques [6]; APPsw+/−/PS1 mice, 100 nM, 60 min): staining of both fibrillar and diffuse plaques; also recorded: stains both fibrillar and diffuse plaques; also recorded: abundant staining of fibrillar and diffuse plaques
